Assay results taken from patent publication US5149632A, “Method for the detection of molds in foodstuffs and human and animal body fluids” (De Staat Der Nedelranden Vertengwoordigd Door De Minister …, priority 1988, dated 1992).

Experiments:
[1] = biological target: rabbit anti-EPS antibodies; assay: competition ELISA: inhibition of binding of rabbit antibodies to EPS (FIG. 3); conditions: binding of antibodies evoked in rabbits to EPS; for 50 per cent inhibition concentration: FIG. 3, EPS species not stated
Protocol: (§1) The inhibition characteristics were determined using a "competition" enzyme-linked immunosorbent assay (ELISA). Microtiter polyvinyl wells (Cooke, Dynatech) were coated with polysaccharides which had been isolated from culture fluids of moulds. For this purpose 0.1 ml of 0.07 M phosphate buffer, pH 7.2, with 0.15 M NaCl (PBS) and 1 μg polysaccharide were added to each well of the plate. After incubating for one night with shaking at 20° C., the wells were washed under a continuous stream of tap water with 0.05% Tween 20 for 0.5 min. A prepared mixture of 50 μl antibodies (rabbit IgG and human sera respectively), diluted in PBS, which contained 0.05% Tween 20 and 2% bovine serum albumin, and 50 μl inhibitor, which was diluted in the same buffer, were then added. After an incubation time of 60 minutes the wells were washed in the manner described above. The quantity of antibodies which was absorbed on the polysaccharides was determined with sheep-anti-rabbit-globulins and with sheep-anti-human-globulins respectively which were conjugated to peroxidase. For this purpose 0.1 ml conjugate diluted in PBS, which contained 0.05% Tween 20, was added to each well (dilution was checked using the checker board titration). The incubation and the washing were carried out in the manner described for the prepared test sample (mixture of serum or IgG and inhibitor).
(§2) The enzyme reaction was determined spectrophotometrically at 449 nm after adding a solution of 5-amino-salicylic acid and H2 O2 (0.1 ml 0.07% 5-amino-salicylic acid, pH 6.0, and 0.005% H2 O2 were added to each well) and an incubation for 30 minutes at 20° C.
The human serum and rabbit IgG solutions were diluted to concentrations at which the extinction coefficients without inhibitor start to decrease (extinction value approximately 0.70). Methyl-β-D-galactofuranoside and the dimers to heptamers inclusive of (1-5)-coupled β-D-galactofuranosides were used as inhibitors. […] The percentage inhibition was calculated as 100--100 (extinction with inhibitor - extinction without inhibitor).

rabbit IgG anti-EPS = assay: specific inhibition test in sandwich ELISA on walnut and herb samples; format: binding; conditions: 50 μg/ml inhibitor
Protocol: A sandwich ELISA was used to ascertain whether (1-5)-coupled β-D-galactofuranosyl radicals were capable of binding antibodies. 0.1 ml portions containing 10 μg/ml rabbit IgG anti-EPS, which was diluted in PBS, were introduced into wells of polyvinyl plates and incubated overnight with shaking at 20° C. After washing in the manner described above, 0.1 ml samples containing β-(1-5)coupled galactofuranosyl radicals in PBS with 0.05% Tween 20 and 2% bovine serum albumin were added. After an incubation time of 60 minutes the plates were washed. 0.1 ml of an optimum dilution (=dilution was checked using the checker board titration) of rabbit IgG anti-EPS, conjugated with peroxidase, diluted in PBS with 0.05% Tween 20 was then added to each well. The incubation and the washing were carried out in the manner described above. The enzyme reaction was also determined in the manner described above.
In addition an immunological determination, described under (F), of Penicillium and Aspergillus species was carried out on 16 samples of walnuts and 9 samples of herbs, use being made of rabbit IgG and, respectively 50 μg/ml of a framer of (1-5)-coupled β-D-galactofuranoside per test sample. The EPS antigen possibly present in the abovementioned products was extracted by boiling with a phosphate-buffered physiological saline solution.

[2] = tested on: human antibody binding to extracellular polysaccharides of Penicillium and Aspergillus species; assay: competition ELISA: inhibition of human antibody binding of 40 serum samples to EPS; conditions: 40 human serum samples
Protocol: A total of 40 serum samples were collected arbitrarily from healthy Dutch males and females aged between 15 and 65.
as §1, §2
The human serum and rabbit IgG solutions were diluted to concentrations at which the extinction coefficients without inhibitor start to decrease (extinction value approximately 0.70). Methyl-β-D-galactofuranoside and the dimers to heptamers inclusive of (1-5)-coupled β-D-galactofuranosides were used as inhibitors. The inhibition effect of dimers of (1-2)-, (1-3)- and (1-6)-coupled β-D-galactofuranoside was also investigated (see Table B). The percentage inhibition was calculated as 100--100 (extinction with inhibitor - extinction without inhibitor).
The inhibition of the human antibody binding to EPS of moulds was tested with 40 serum samples using the tetramer of (1-5)-coupled β-D-galactofuranoside as inhibitor. The EPS in these tests originated from P. digitatum, P. cyclopium, P. dierckxii, P. funiculosum, A. niger, A. fumigatus and A. repens. Antibodies against P. funiculosum were not detectable in any serum sample, while antibodies against the other EPS derivatives were present in all 40 serum samples. The titers (reciprocal value of the dilution which gives the extinction equal to the mean value for 10 blank samples+2.81×standard deviation of these blank samples; confidence limit 99%), were in a range from 400 to 6,000. There was a significant correlation 99%) between the presence of antibodies in each serum and against the various Penicillium/Aspergillus EPS derivatives which were tested (Spearman Rank correlation test).

Row | Compound | 50 per cent inhibition concentration [1] | concentration giving complete inhibition (100%) [1] [µg/mL] | Number of samples with inhibition >50% (rabbit IgG anti-EPS; Herbs, 4 samples, ELISA titer >50,000) | Number of samples with inhibition >50% (rabbit IgG anti-EPS; Herbs, 5 samples, ELISA titer 5000-50,000) | Number of samples with inhibition >50% (rabbit IgG anti-EPS; Nuts, 3 samples, ELISA titer 100-500) | Number of samples with inhibition >50% (rabbit IgG anti-EPS; Nuts, 4 samples, ELISA titer 5000-50,000) | Number of samples with inhibition >50% (rabbit IgG anti-EPS; Nuts, 9 samples, ELISA titer 500-5000) | Number of samples with an inhibition of 25% ([2]; inhibitor 4 μg/ml) | Number of samples with an inhibition of 50% ([2]; inhibitor 4 μg/ml) | Number of samples with an inhibition of 90% ([2]; inhibitor 4 μg/ml) | Number of samples with an inhibition of 25% ([2]; inhibitor 20 μg/ml) | Number of samples with an inhibition of 50% ([2]; inhibitor 20 μg/ml) | Number of samples with an inhibition of 90% ([2]; inhibitor 20 μg/ml) | Number of samples with an inhibition of 25% ([2]; inhibitor 100 μg/ml) | Number of samples with an inhibition of 50% ([2]; inhibitor 100 μg/ml) | Number of samples with an inhibition of 90% ([2]; inhibitor 100 μg/ml) | Number of samples with an inhibition of 25% ([2]; inhibitor 500 μg/ml) | Number of samples with an inhibition of 50% ([2]; inhibitor 500 μg/ml) | Number of samples with an inhibition of 90% ([2]; inhibitor 500 μg/ml)
1 | CO[C@@H]1O[C@@H]([C@H](O)CO)[C@H](O)[C@H]1O [monomer, Methyl β-D-galactofuranoside] | approximately 10,000 μg/ml |  |  |  |  |  |  |  |  |  |  |  |  |  |  |  |  |  | 
2 | tetramer of (1-5)-coupled β-D-galactofuranoside | 30 µg/mL | 100 | 4 | 5 | 3 | 4 | 7 | 15 | 0 | 0 | 34 | 12 | 0 | 36 | 32 | 0 | 37 | 36 | 15
